The nature of series [1]: Tissue-blood distribution coefficients and volume of distribution. The note with it: whole blood, pH 7.5, Estimated volume of distribution Vd, residues in muscle, liver and blood only. The procedure:
(§1) Blood is the transport medium for contaminants in fish, and the tissue distribution is governed by tissue–blood distribution coefficients. […] Muscle–blood and liver–blood distribution coefficients (DMus–B and DL–B) were calculated as the quotients of the concentrations in the respective tissues and blood. This approach implies that there was an internal test chemical steady state in the fish.
(§2) The experimental data also allow estimation of the volume of distribution (Vd), an important parameter for extrapolating in vitro measures of e.g. metabolism to in vivo. In the context of quantitative in vitro–in vivo extrapolation for fish, Vd is defined as the quotient of the concentration in fish and the concentration in blood and describes the equivalent volume of blood that would contain the same amount of the chemical as 1 kg of fish.[40]Vd was estimated using the residues that had been clearly taken up systemically (i.e., those in muscle, liver and blood).

Series [2] deals with Danio rerio. The note with it: ref REACH dossiers (European Chemicals Agency); cited from earlier work.
Series [3] has as its system Pimephales promelas. Set-up: method as in REACH dossiers (European Chemicals Agency). The note with it: ref REACH dossiers (European Chemicals Agency); cited from earlier work.
For series [4], the system named is carp (Cyprinus carpio). Set-up: method as in ECHA Registration dossier for octadecylamine. The conditions noted are these: after acidic methanol wash to remove the mucous, validity uncertain, ref ECHA Registration dossier for octadecylamine; cited from earlier work.
Series [5] relates to rainbow trout (Oncorhynchus mykiss). The series can be described thus: Tissue-blood distribution coefficients and volume of distribution. The conditions noted are these: residues in muscle, liver and blood only. The procedure:
as §1, §2

Several values for one entry are separate records, joined by “and”; a condition that tells them apart may be missing. Identical values can stand only once.

On to `CCCCCCCCCN` [P9, Nonylamine], for which the Vd – broadly, the apparent volume that relates the amount in the body to the concentration in plasma or blood – at 7 d is 0.91 L/kg in series [1] (Mean); 0.59 L/kg in series [1] (exposed fish #1); 1.06 L/kg in series [1] (exposed fish #2); 0.8 L/kg in series [1] (exposed fish #3); 1.6 L/kg in series [1] (exposed fish #4); 0.83 L/kg in series [1] (exposed fish #5). Also, the Vd at 7 d in series [1] (exposed fish #6) is 0.56 L/kg.

Turning to `CCCCCCCCCCCCN` [P12, Dodecylamine], in series [2], the 96h-LC50 is 0.54 µg/mL and 0.42 µg/mL. For the same compound, the volume of distribution (Vd) at 7 d was 1.29 L/kg in series [1] (Mean); 1.13 L/kg in series [1] (exposed fish #1); 1.31 L/kg in series [1] (exposed fish #2); 1.07 L/kg in series [1] (exposed fish #3); 1.87 L/kg in series [1] (exposed fish #4); 1.56 L/kg in series [1] (exposed fish #5). In addition, in series [1] (exposed fish #6), the Vd at 7 d is 0.79 L/kg.

On to `CCCCCCCCCCCCCN` [P13, tridecylamine], for which, in series [3], the 96h-LC50 was 0.065 µg/mL. The Vd at 7 d was 1.49 L/kg in series [1] (rainbow trout (Oncorhynchus mykiss), other: exposure via water, Mean); 1.59 L/kg in series [1] (exposed fish #1); 1.44 L/kg in series [1] (exposed fish #2); 1.28 L/kg in series [1] (exposed fish #3); 1.33 L/kg in series [1] (exposed fish #4); 1.54 L/kg in series [1] (exposed fish #5). For the same compound, the Vd at 7 d in series [1] (exposed fish #6) is 1.77 L/kg.

As for `CCCCCCCCCCCCCCCCN` [P16, hexadecylamine], the BCF in series [4] was 300 L/kg. Also, the Vd at 7 d in series [1] (Mean) was 1.13 L/kg; in series [1] (exposed fish #1), 0.99 L/kg; in series [1] (exposed fish #2) it was 1.2 L/kg; in series [1] (exposed fish #3) it was 1.1 L/kg; in series [1] (exposed fish #4), 1.63 L/kg; in series [1] (exposed fish #5), 1.15 L/kg. In addition, in series [1] (exposed fish #6), the Vd at 7 d is 0.73 L/kg.

`CCCCCCCCCN(C)C` [T9, N,N-dimethylnonylamine]: the “Estimated volume of distribution Vd” value was 0.49 L/kg in series [5] (Mean); 0.53 L/kg in series [5] (exposed fish #1); 0.45 L/kg in series [5] (exposed fish #2); 0.41 L/kg in series [5] (exposed fish #3); 0.51 L/kg in series [5] (exposed fish #4); 0.52 L/kg in series [5] (exposed fish #5). For the same compound, the “Estimated volume of distribution Vd” value in series [5] (exposed fish #6) is 0.52 L/kg.

Regarding `CCCCCCCCCCCCCN(C)C` [T13, N,N-dimethyltridecylamine], the “Estimated volume of distribution Vd” value was 0.71 L/kg in series [5] (Mean); 0.58 L/kg in series [5] (exposed fish #1); 0.64 L/kg in series [5] (exposed fish #2); 0.59 L/kg in series [5] (exposed fish #3); 1.18 L/kg in series [5] (exposed fish #4); 0.80 L/kg in series [5] (exposed fish #5). The “Estimated volume of distribution Vd” value in series [5] (exposed fish #6) is 0.47 L/kg.
